Measured values published in article PMC4528135, “Kinetic Investigations of the Role of Factor Inhibiting Hypoxia-inducible Factor (FIH) as an Oxygen Sensor” (The Journal of Biological Chemistry, 2015).

Legend:
Type in all cases: biochemical
[1] = target: T1, PHD2 (catalytic domain, residues 181–426) (Homo sapiens, UniProt Q9GZT9); assay: Steady-state kinetics of PHD2-catalyzed HIF-α CODD/NODD hydroxylation (MALDI-TOF-MS); conditions: PHD2, 4 μM PHD2, 50 μM Fe(II), 4 mM L-ascorbate, 50 mM HEPES pH 7.5, 37 °C
T1 construct: The catalytic domain of PHD2 (residues 181–426) was purified as described; made in house
Description: (§1) Enzymatic assays were conducted as described ([46], [47]). Unless otherwise stated, the assay mixture typically contained 5 μM FIH, 500 μM substrate, 500 μM 2OG, 1 mM L-ascorbate, and 50 μM Fe(NH4)2(SO4)2 or 4 μM PHD2, 100 μM substrate, 300 μM 2OG, 4 mM L-ascorbate, and 50 μM Fe(NH4)2(SO4)2. For HIF-1α CODD19-mer, the background levels of methionine oxidation resulting from assay conditions were subtracted based on non-enzymatic controls ([48]).
The O2 dependence of FIH-catalyzed reactions was determined by conducting enzymatic assays in an “In vivo 500 Hypoxia Workstation” (Ruskinn) using buffers pre-equilibrated under different pO2 values for 24 h. The O2 dependence of PHD2-catalyzed reactions was determined by conducting enzymatic assays in sealed glass vials with variable N2/O2 contents ([42]). Reactions were stopped by spotting samples onto a matrix-assisted laser desorption/ionization-time of flight mass spectrometry (MALDI-TOF-MS) target plate and immediately mixing with α-cyano-4-hydroxycinnamic acid matrix. Hydroxylation levels were assessed by MALDI-TOF-MS as described ([46]).

[2] = target: T2, PHD2 (Homo sapiens, UniProt Q9GZT9); assay: Time course of PHD2-catalyzed peptide hydroxylation; conditions: 4 μM PHD2, 100 μM peptide, 50 μM Fe(II), 300 μM 2OG, 1 mM L-ascorbate, 50 mM HEPES pH 7.5, 37 °C, atmospheric O2; MALDI-TOF-MS; triplicate assays
T2 construct: The catalytic domain of PHD2 (residues 181–426) was purified as described; made in house
Description: as §1
FIGURE 3. PHD2- and FIH-catalyzed hydroxylation of HIF-1/2α peptide substrates. A, time course of HIF-1/2α CODD19-mer peptide hydroxylation; B, time course of HIF-1/2α NODD19-mer peptide hydroxylation. Conditions were as follows: 4 μM PHD2, 100 μM peptide, 50 μM Fe(II), 300 μM 2OG, 1 mM L-ascorbate in HEPES 50 mM (pH 7.5) were incubated at 37 °C at atmospheric O2. C, time course of HIF-1α CAD 19- and 35-mer peptide hydroxylation. D, time course of HIF-2α CAD 19- and 35-mer peptide hydroxylation. Conditions were as follows: 5 μM FIH, 500 μM peptide, 50 μM Fe(II), 500 μM 2OG, 1 mM L-ascorbate in HEPES 50 mM (pH 7.5) were incubated at 37 °C at atmospheric O2. The different hydroxylation levels were analyzed by MALDI-TOF-MS. Error bars, S.D. of triplicate assays.

[3] = target: T2, PHD2; assay: Stopped-flow UV-visible spectroscopy, PHD2·Fe(II)·2OG·substrate + O2; conditions: anaerobic 0.8 mM PHD2, 1 mM peptide, 5 mM 2OG, 50 mM HEPES pH 7.5, mixed 1:1 with O2-saturated buffer at 5 °C, double exponential fit
Description: Stopped-flow UV-visible spectroscopy experiments were performed as described previously ([32], [42]). […] The reaction was observed over 1000 s using a photodiode array detector, and kinetic traces were analyzed using Origin version 8.51 software. Data were fitted with a double exponential function (y = A1 × exp(−kriset) + A2 × exp(−kfallt) + y0). The A1, A2, and y0 parameters were restricted with upper limits to match the observed amplitude/offset changes.
Previously reported pre-steady-state kinetic studies on PHD2 focused on its reaction with CODD HIF-1α 19-mer peptide ([38], [42]); there is no reported information on the rates of PHD2 reaction with O2 in the presence of NODD HIF-1α or HIF-2α substrates. To ascertain whether a slow reaction with O2 under pre-steady-state conditions is common to PHD2-catalyzed hydroxylation of both CODD and NODD, we investigated the reaction of PHD2 with NODD substrates in comparison with CODD for both HIF-1α and HIF-2α. Pre-steady-state reactions of PHD2 were initiated by rapid mixing of anaerobic PHD2·Fe(II)·2OG·HIF-α complexes with O2-saturated buffer at 5 °C. Reactions were initially observed using a photodiode array detector, and difference spectra (in comparison with the reaction with O2-free buffer) were subsequently analyzed.
FIGURE 5. Pre-steady-state kinetics of PHD2-catalyzed HIF-1/2α hydroxylation. […] B, stopped-flow kinetic traces at 520 nm showing absorbance changes in control experiments: Fe(II) only, mix of Fe(II) and 2OG, reaction of PHD2·Fe(II)·2OG complex with O2 in the absence of CODD; reaction of PHD2·Fe(II)·N-oxalylglycine (NOG)·CODD complex with O2. N-Oxalylglycine is an inhibitor of 2OG oxygenases. […] The kinetic traces represent the average of triplicate assays. E, HIF-1/2α peptide hydroxylation, as determined by MALDI-TOF-MS. Reactions were quenched with 1% CF3CO2H at defined time points.

[4] = target: T2, PHD2; assay: Rapid quench-flow, PHD2 pre-steady-state product and succinate formation; conditions: same mixture as stopped-flow, O2-saturated buffer 1:1, 5 °C, quenched with 1% CF3CO2H
Description: Rapid quench-flow experiments were performed using the same conditions and preparation of the assay mixture as used in stopped-flow experiments. Rapid quench-flow equipment (TgK Scientific Ltd.) in an anaerobic glove box was used for the experiments. Samples were quenched with 1% CF3CO2H and analyzed using MALDI-TOF-MS (peptide hydroxylation) as described above or liquid chromatography-mass spectrometry (LC-MS, for succinate production). For LC-MS, chromatographic separation was performed at 50 °C using a Waters ACQUITY BEH Amide 1.7-μm, 2.1 × 100-mm column on a Waters ACQUITY^TM ultraperformance liquid chromatography system (Waters Corp., Milford, MA). The following eluents were used: mobile phase A: 10% H2O, 90% acetonitrile (v/v), 10 mM ammonium formate; mobile phase B: 50% H2O, 50% acetonitrile (v/v), 10 mM ammonium formate. The elution gradient was 0–7.0 min linear from 10 to 30% B, and 7.0–9.0 min at 10% B for re-equilibration of the column. A constant flow rate of 0.4 ml/min was used. Analytes were detected in negative ionization mode using single reaction monitoring on a Quattro triple quadrupole mass spectrometer (Waters) with a cone voltage of 15 V and a capillary voltage of 3.0 kV. The desolvation temperature was set to 250 °C, and the source temperature was set to 120 °C.
To investigate correlation of the spectroscopic observations with rates of product accumulation, equivalent reactions were analyzed by rapid quench-flow methodology. Anerobically prepared PHD2·Fe(II)·2OG·peptide substrate complexes were mixed with O2-saturated buffer in a 1:1 ratio; reactions were quenched at defined time points with 1% aqueous CF3CO2H. The level of peptide hydroxylation was assessed by MALDI-TOF-MS ([42]), and succinate accumulation was analyzed by LC-MS. To obtain rate constants for product accumulation, the results were fitted with a single exponential function (Fig. 5E and Table 3).

T2 sequence (Q9GZT9 181-426): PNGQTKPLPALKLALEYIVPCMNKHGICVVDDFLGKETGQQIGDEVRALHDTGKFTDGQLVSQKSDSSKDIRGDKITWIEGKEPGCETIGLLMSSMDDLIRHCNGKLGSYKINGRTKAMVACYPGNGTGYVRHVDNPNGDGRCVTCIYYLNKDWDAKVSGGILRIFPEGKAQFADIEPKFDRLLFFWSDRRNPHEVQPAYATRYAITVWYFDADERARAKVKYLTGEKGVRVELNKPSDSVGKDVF
T1 sequence (Q9GZT9 181-426): as above

DLDLEMLAPYIPMDDDFQL [HIF-1α CODD, 19-mer fragment (556–574) of the HIF-1α C-terminal oxygen-dependent degradation domain, PHD2 substrate]
kcat^app [1]: 0.060 ± 0.006 s⁻¹
substrate hydroxylation after 15 min [2]: 70%
Stopped-flow, 520 nm (PHD2) krise phase [3]: 0.015 ± 0.005 s⁻¹
Stopped-flow, 520 nm (PHD2) kfall phase ([3]; traces average of triplicate): 0.040 ± 0.007 s⁻¹
Rapid quench-flow kproduct ([4]; peptide hydroxylation by MALDI-TOF-MS, single exponential fit): 0.0155 ± 0.0012 s⁻¹
Rapid quench-flow ksuccinate ([4]; succinate by LC-MS): 0.0130 ± 0.0020 s⁻¹
